For test [1], the system named is ADC-73 in DH10B Escherichia coli. In words: MIC by broth microdilution, ADC-73 in DH10B E. coli. The format is cell-based. Particulars: DH10B E. coli expressing ADC-73 (non-Adup) from pBCSK−, FDC in iron-depleted cation-adjusted MH broth, mode of triplicate. As for the experimental part: (§1) Susceptibility testing to standard antibiotics was performed by broth microdilution according to 2024 Clinical and Laboratory Standards Institute (CLSI) guidelines ([38]). MICs for FDC were done in iron-depleted cation-adjusted Mueller-Hinton (MH) broth according to CLSI methods. All MICs were interpreted according to the 2024 CLSI guidelines ([38]). MICs are done in triplicate, and the mode MIC value is reported.
(§2) blaADC-7 pBCSK− was cloned and expressed in E. coli DH10B cells as previously described for MIC determinations ([3]). The pBCSK-non-inducible phagemid vector has a chloramphenicol resistance gene used to aid selection. All other blaADC variants were synthesized by GenScript according to the blaADC-7 pBCSK− strategy, cloning into the XbaI/BamHI sites of the pBCSK− vector ([5]).

Test [2] has as its system ADC-143 in DH10B Escherichia coli. In words: MIC by broth microdilution, ADC-143 in DH10B E. coli. It is filed as cell-based. Particulars: DH10B E. coli expressing ADC-143 (non-Adup) from pBCSK−, FDC in iron-depleted cation-adjusted MH broth, mode of triplicate. The procedure: as §1, §2
On the technique in general: Broth dilution looks for growth in wells or tubes with falling amounts of substance.

The subject of test [3] is ADC-219 in DH10B Escherichia coli. Put plainly: MIC by broth microdilution, ADC-219 in DH10B E. coli. The format is cell-based. Particulars: DH10B E. coli expressing ADC-219 (Adup) from pBCSK−, FDC in iron-depleted cation-adjusted MH broth, mode of triplicate. The procedure:
as §1, §2

The next test has as its system DH10B alone. Put plainly: MIC by broth microdilution, DH10B alone. The format is cell-based. Particulars: Escherichia coli; DH10B alone (control strain); FDC in iron-depleted cation-adjusted MH broth. The procedure: as §1, §2
The target in the next test is ADC-7 (Acinetobacter baumannii, UniProt Q6DRA1). Put plainly: Competition kinetics with nitrocefin (Ki), ADC-7. The format is biochemical. Particulars: 3 min pre-incubation, Cheng-Prusoff corrected. As for the experimental part: (§3) For inhibition kinetics, utilizing NCF as a colorimetric substrate of ADCs, the inhibition constant (Ki) of CAZ and FDC with ADCs was determined using competition kinetics as previously described ([5]). After a 3 min pre-incubation of the enzyme (2 nM) with increasing concentration of the inhibitor, measurements of the initial velocities were performed with the addition of 100–200 µM NCF (twofold of the experimentally determined KM value). To determine the average velocities (v0), data from three experiments were fit to the followingequation: […]
(§4) where vu represents the NCF uninhibited velocity and IC50 represents the inhibitor concentration that results in a 50% reduction of vu. The Ki value was corrected for the NCF affinity (KM values for each ADC) with the Cheng-Prusoff ([5]) equation: […]
(§5) The standard error for Ki values was generated by factoring in the larger of the proportional standard errors for the individual IC50 value and the KM -NCF value.

Test [4] has as its target T1, ADC-30 (Acinetobacter baumannii, UniProt A7XM81). In words: Competition kinetics with nitrocefin (Ki), ADC-30. It is filed as biochemical. Particulars: 3 min pre-incubation, Cheng-Prusoff corrected. The procedure: as §3, §4, §5
Another test deals with ADC-73 (Acinetobacter baumannii, UniProt A0A059ZDI2). In words: Competition kinetics with nitrocefin (Ki), ADC-73. The format is biochemical. Particulars: 3 min pre-incubation, Cheng-Prusoff corrected. As for the experimental part:
as §3, §4, §5

In the next test the target is ADC-143 (Acinetobacter baumannii, UniProt Q6DRA1, Q144K, form not given). Put plainly: Competition kinetics with nitrocefin (Ki), ADC-143. The format is biochemical. Particulars: 3 min pre-incubation, Cheng-Prusoff corrected. As for the experimental part: as §3, §4, §5
A further test concerns the target ADC-217 (Acinetobacter baumannii, UniProt Q6DRA1, V286E, form not given). Put plainly: Competition kinetics with nitrocefin (Ki), ADC-217. It is filed as biochemical. Particulars: 3 min pre-incubation, Cheng-Prusoff corrected. As for the experimental part: as §3, §4, §5
In test [5] the target is T2, ADC-33 (Acinetobacter baumannii, UniProt A7Y407). In words: Competition kinetics with nitrocefin (Ki), ADC-33. The format is biochemical. Particulars: 3 min pre-incubation, Cheng-Prusoff corrected. The procedure:
as §3, §4, §5

Test [6] concerns the target T2, ADC-33. In words: Timed electrospray ionization mass spectrometry of acylated adducts, ADC-33. It is filed as binding. Particulars: ADC-33, incubation 30 s–1 h; enzyme:substrate 1:25. As for the experimental part: β-Lactamase (5 µg) was incubated with substrate at a molar ratio of 1:25 (FDC, CAZ, meropenem [MEM]) in sterile 10 mM PBS, pH 7.4, for a total reaction volume of 20 µL (t = 30 s, 1 min, 15 min, 30 min, 1 h, 2 h, and 24 h). Reactions were quenched with 1% acetonitrile and 0.1% formic acid. Samples were analyzed using Q-TOF Waters Synapt-G2-Si and a Waters Acquity ultrapressure liquid chromatography BEH C18 column (1.7 µm […]; 2.1 × 50 mm). MassLynx v.4.1 was used to deconvolute protein peaks. The tune settings for each data run were as follows: capillary voltage at 3.5 kV, sampling cone at 35, source offset at 35, source temperature 100°C, desolvation temperature 500°C, cone gas at 100 L/h, desolvation gas at 800 L/h, and nebulizer bar at 6.0. Mobile phase A was 0.1% formic acid-water. Mobile phase B was 0.1% formic acid-acetonitrile. The mass accuracy for this system is ±5 Da. Mass spectrometry experiments were performed once over a range of time points.

In test [7] the target is T1, ADC-30. In words: Thermal denaturation by circular dichroism, ADC-30. Particulars: ADC-30 12 µM, 1 mM antibiotic, PBS pH 7.4. It is filed as binding. The procedure: (§6) For thermal denaturation, protein samples were monitored for helical content by circular dichroism in the far-UV region at 210 and 220 nm using a Jasco J-815 spectrometer (Easton, MD) with a Peltier-effect temperature controller, as previously described ([41]). Enzyme concentrations were 12 µM in phosphate-buffered saline (PBS) pH 7.4. The thermodynamic stability of apoADC-30 and ADC-33, and with 1 mM FDC and CAZ, was determined from equilibrium unfolding curves. With the assumption of a reversible two-state transition, we determined the Tm at the midpoint of equilibrium folding. Thermal denaturation experiments were done in duplicate under the same conditions, with each data point representing the average of three successive scans, and the Tm values are consistent with ±1°C variation.
Background: Circular dichroism is the unequal absorption of left and right circularly polarised light.

Test [8] has as its target T2, ADC-33. In words: Thermal denaturation by circular dichroism, ADC-33. The format is binding. Particulars: ADC-33 12 µM, 1 mM antibiotic, PBS pH 7.4. The procedure: as §6
The target in test [9] is T2, ADC-33. Particulars: hydrolysis by ADC-33; previously determined; cited from earlier work.

The structures appear in SMILES notation. Values after ≈ are worked out from the molar mass of the structure shown.

A word on the MIC: it is the smallest concentration in the dilution series that meets the test's criterion for growth inhibition. A lower MIC goes with inhibition by little substance. What is called Ki is the dissociation constant of the complex between target and ligand, obtained from inhibition or displacement. The low end stands for tighter binding, the high end for weaker binding. As a reminder, the kcat is the number of substrate molecules converted per active site and unit of time at saturation. As to `CC(C)(O/N=C(\C(=O)N[C@@H]1C(=O)N2C(C(=O)[O-])=C(C[n+]3ccccc3)CS[C@H]12)c1csc(N)n1)C(=O)O` [CAZ, ceftazidime], the minimal inhibitory concentration (MIC) in test [1] stood at 64 µg/mL (≈ 117 µM); in test [2], 256 µg/mL (≈ 468 µM); in test [3], 64 µg/mL (≈ 117 µM); with DH10B alone it was 0.5 µg/mL (≈ 0.915 µM). The inhibitory constant (Ki) is 2.1 ± 0.25 µM on ADC-7; 3.23 ± 0.31 µM on ADC-30 [4]; 8.72 ± 0.74 µM on ADC-73; 47.8 ± 3.34 µM on ADC-143; 0.26 ± 0.014 µM on ADC-217; 28.4 ± 2.09 µM at ADC-33 [5]. In addition, the “formation of stable acyl-enzyme adduct” value on ADC-33 [6] is given as “did not form a stable acyl-enzyme adduct”. Further, the “change of Tm of the β-lactamase on addition of antibiotic” value on ADC-30 [7] and at ADC-33 [8] was “does not alter the Tm” throughout. At ADC-33 [9], the catalytic constant (kcat) is 3.71 s⁻¹.

These data come from publication PMC12153338, “Resistance to oxyimino-cephalosporins conferred by an alternative mechanism of hydrolysis by the Acinetobacter-derived cephalosporinase-33 (ADC-33), a class C β-lactamase present in carbapenem-resistant Acinetobacter baumannii (CRAb)” (mBio, 2025).
